Row | SMILES | melting point [°C]
1 | CC1=C(C(=O)OC(C)C)C(c2cccc([N+](=O)[O-])c2)C(C(=O)OC2CN(C(c3ccccc3)c3ccccc3)C2)=C(N)N1 (centres undefined) | 95 to 98
2 | CCOC(=O)C1=C(C)N=C(SCc2ccc(OC)cc2)N(C(=O)OCC)C1c1cccc(Cl)c1Cl (centres undefined) | 124 to 126
3 | CC(=O)N[C@H]1CC[C@H](c2ccc([N+](=O)[O-])cc2)CC1 | 221 to 224
4 | CCCc1nc2c(C)cnc(C(=O)O)c2n1Cc1ccc(-c2ccccc2-c2nnn[nH]2)cc1 | 161 to 163
5 | ClCc1c(Cl)nnc(Cl)c1Cl | 102 to 104
6 | C#CCOc1ccc(CCNC(=O)[C@@H](O)c2ccccc2)cc1OC | 81 to 83
7 | CCOC(=O)c1cn(-c2cc(NC(=O)OC(C)(C)C)c(F)cc2F)c2c(C)c(F)c(F)c(C)c2c1=O | 141 to 142
8 | [N-]=[N+]=Nc1ccc(Cl)cc1C(=NO)c1ccccc1 | 125 to 132
9 | c1ccc2c(c1)CCc1ccccc1C2Nc1ccncc1 | 263 to 264
10 | CCC(CC)c1ccc(OC)c2nc(Nc3c(C)cc(Cl)cc3OC)n(C)c12 | 188 to 189
11 | O=S(=O)(c1cc(F)ccc1F)N1CCNc2ncc(I)cc21 | 187 to 188
12 | CCOC(=O)CC[C@H](NC(=O)c1ccc(CCCCc2c(N)nc(N)nc2O)cc1)C(=O)OCC | 75 to 76
13 | COc1ccc(C(=O)Nc2nc(-c3ccccc3)c(-c3ccc(=O)n(C(C)C)n3)s2)cc1 | 219 to 221
14 | CC1(CNC(=O)OC(C)(C)C)CN(C(c2ccccc2)c2ccccc2)C1 | 106 to 107
15 | CS(=O)(=O)c1ccc(-c2cnn(-c3cccs3)c(=O)c2-c2ccc(F)cc2)cc1 | 215 to 217
16 | Cc1cc(O)c(CC(=O)OC(C)C)cc1O | 123
17 | COCOC1=C(C(N)=O)CC(C#N)(c2ccc(OC)c(OCC3CC3)c2)CC1 (centres undefined) | 120 to 122
18 | COc1ccccc1N1CCN(CC(Cc2ccccc2)C(=O)O)CC1 (centres undefined) | 155 to 158
19 | O=Cc1cccc(OCc2ccc3ccccc3n2)c1 | 48 to 53
20 | CCC1(O)CC(=O)OCc2c1cc1n(c2=O)Cc2c-1nc1cc(F)ccc1c2-c1ccccc1 (centres undefined) | > 250
21 | Cc1ccc(Cn2ncnc2C(C)NS(=O)(=O)c2ccc(Cl)s2)cc1 (centres undefined) | 116 to 117
22 | O=c1nc(N2CCC=C(c3ccccc3)C2)sc2ncccc12 | 167 to 169
23 | CCOC(=O)c1sc(Oc2ccc(OCc3ccc4ccccc4n3)cc2)c2c1CCc1cnn(C)c1-2 | 269 to 270
24 | CCOC(=O)N1CCC2C(O)CCCC21 (centres undefined) | 153 to 155

Row | SMILES | melting point [°C]
25 | NC(CC(=O)O)c1ccc(OC(F)(F)F)cc1 (centres undefined) | 258 to 260
26 | COc1cc2ncc(C#N)c(Nc3ccc4sc(C)nc4c3)c2cc1OC | 118 to 120
27 | CCC(CC)n1cc(Cl)nc(N2CCc3cc(OC)cc(C)c32)c1=O | 164 to 165
28 | Cc1ccc(S(=O)(=O)OCC2Cc3c(Br)cccc3O2)cc1 (centres undefined) | 90 to 91
29 | CC(O)(C(=O)O)c1ccc2c(c1)Cc1ccccc1-2 (centres undefined) | 164 to 168
30 | CN(C)CCNc1ccc(NCCCCN)c2c1C(=O)c1ccccc1C2=O | 88 to 90
31 | COc1ccc2cc(C3=CCC4(CCNCC4)CC3)ccc2c1 | 147 to 150
32 | CCc1nc(OC)c(NC(=O)N2CCN(c3cc(Cl)cc(Cl)c3)CC2)cc1C(=O)Nc1cc(CO)cc(Nc2c3ccccc3nc3ccccc23)c1 | 210 to 212
33 | O=C(Nc1nccs1)c1c(C(F)(F)F)nc2ccccc2c1O | > 280
34 | CCc1csc2c(C(=O)O)c(=O)c3cc(F)c(N4CCNCC4)cc3n12 | 247 to 251
35 | CC(C)c1nc(CN2C(=O)C3(COc4cc5c(cc43)OCCO5)c3ccccc32)cs1 (centres undefined) | 60 to 63
36 | O=C(NCc1ccc(C(F)(F)F)c(F)c1)Nc1cccc2[nH]ccc12 | 198
37 | CCc1ccccc1N1CCN(C(=S)Nc2nc3ccccc3nc2OC)CC1 | 141 to 143
38 | COc1cc(N)c([N+](=O)[O-])c(OC(F)F)c1OC | 141 to 142
39 | CCCn1c(=O)c2nc(CC(C)c3ccccc3)[nH]c2n(CCC)c1=O (centres undefined) | 136 to 137
40 | O=C1CCC(N2Cc3c(OCc4ccc(CN5CCS(=O)CC5)cc4)cccc3C2=O)C(=O)N1 (centres undefined) | 170 to 172
41 | C=CCNC(=O)[C@H]1N(C(=O)[C@@H](O)[C@H](Cc2ccccc2)NC(=O)c2cccc(O)c2C)CSC1(C)C | 173 to 175
42 | CCCCNc1cccc([N+](=O)[O-])c1C#N | 72 to 74
43 | Cn1ncc(C(=O)N2CCOCC2)c1C(=O)Nc1ccc2nc(-c3cccnc3)nn2c1 | 229
44 | N#CCc1ccc(-c2nc3ccccc3o2)cc1Br | 190 to 191
45 | CSc1cc(OCCC[Si](C)(C)C)c(Cl)cc1NC=NC#N | 94 to 96
46 | COc1ccc(F)c2c1OC(CN1CC(C)(C)Cn3c1nc(-c1ccncn1)cc3=O)CC2 (racemic) | 136 to 138
47 | CN(C)C(=O)c1ccc(C(C)(C)C)c(N)c1 | 186 to 188

The next lines start with the values.

Row | melting point [°C] | SMILES
48 | 164 to 168 | COc1ccc(O)c(C2(NCC(C)=O)Sc3ccccc3N(C)C2=O)c1 (centres undefined)
49 | 105 to 106 | CC(=O)OC1CCCC2=CC=C3C4CCC(C(C)CCCC(C)C)C4(C)CCC3C21C (centres undefined)
50 | 171 to 173 | O=C(c1ccccc1)c1c(O)cc(-c2ccccc2)oc1=O
51 | 209 to 210 | Fc1ccc2nc(S)oc2c1F
52 | 110 to 112 | CC(C)c1cc(-c2ccc(F)cc2)cc(-c2ccc(F)cc2)c1C=O
53 | 161 to 162 | COc1cc(C)nc(NC(=O)NS(=O)(=O)c2ccccc2NC(C)=O)n1
54 | 71 to 74 | CC(C)CC(NC(=O)OCc1ccccc1)C(=O)NC(Cc1cccc2ccccc12)C(=O)CSCc1ccco1 (centres undefined)
55 | 147 | Cc1cc(F)ccc1-c1cc(OC2SCC(O)C(O)C2O)ccn1 (centres undefined)
56 | 168 to 169 | CC(C)c1cccc(C(C)C)c1NC(=S)CCC(=O)c1ccccc1
57 | 204 to 205 | CC(C)CN1C(=O)C(C)(C)C(=O)Nc2cc(C#N)ccc21
58 | 126 to 128 | COC(=O)c1cc(C)c(C(OC(=O)C(C)NS(=O)(=O)c2ccc(Cl)cc2)c2cc(-n3ccnc3)ccc2C)c(C)c1 (centres undefined)
59 | 163 to 165 | N#Cc1cncc(-c2ccc(OCc3ccccc3)cc2)c1Nc1ccc2[nH]ccc2c1
60 | 152 to 154 | CCOC(=O)c1cn(-c2ccc(F)cc2F)c2c(F)c(F)c(F)c(C)c2c1=O
61 | 84 to 85 | CCCS(=O)c1cc(O)ccc1C (centres undefined)
62 | 122 to 124 | COC(=O)CCCc1cc2nc(Cl)ccc2n1S(=O)(=O)c1ccc(-c2ccccc2)cc1
63 | 258 to 260 | COc1ccc2cc3c(Cl)c(C#N)cnc3cc2c1
64 | 103 to 104 | CCCc1c(SCCCOc2ccc3c(=O)cc(C(=O)OCC)oc3c2CCC)ccc(C(C)=O)c1N
65 | 195 to 197 | COC(=O)Nc1nc2cnc3cccnc3c2n1CC(C)C
66 | 136 to 137 | Cc1c(Cl)cc(N2CCN(CCCCN3C(=O)c4ccccc4S3(=O)=O)CC2)c2c1OCCO2
67 | 124 to 125 | CCOc1ccc(C(=O)c2c(-c3ccc(OC)cc3)sc3cc(OC)ccc23)cc1
68 | 116 to 117 | O=c1ccc2ccc(CO)cc2o1
69 | 214 to 222 | COc1cc(OC)nc(NC(=O)NS(=O)(=O)c2ccccc2-c2nnn(C)n2)n1
70 | 134 to 135 | O=C(N[C@H](Cc1ccc(C(F)(F)F)cc1)[C@H](O)c1ccc(F)cc1)c1cccc2ccccc12 (racemic)
71 | 139 to 140 | CC(C)c1ccc(C2=C(c3ccc(S(C)(=O)=O)cc3)OC3(CCCC3)C2=O)cc1

Row | melting point [°C] | SMILES
72 | 80 to 83 | CCCCC=CCCCCC(=O)CCCCC=CCCCCC=O
73 | 145 to 146 | O=S(=O)(c1ccccc1)c1ccc(Oc2ccc(Cl)c(Cl)c2)cc1
74 | 218 to 220 | COCCOc1cc2ncnc(NC3=CC(=O)C(OCc4ccccc4)=CC3=O)c2cc1OC
75 | 248 to 249 | COc1cc(C(=O)NS(=O)(=O)c2ccccc2C)ccc1Cc1cccc2ccc(NC(=O)CC3CCCC3)cc12
76 | 101 to 102 | NC(=CC(=O)[C@H](Cc1ccccc1)N(Cc1ccccc1)Cc1ccccc1)Cc1ccccc1
77 | 221 to 224 | CC1(C)CCC(C)(C)c2cc(C(=O)c3ccc(C(O)=NO)cc3)c(OCc3ccc(Br)cc3)cc21
78 | 204 to 207 | COc1ccc(-c2sc3cc(OC)ccc3c2C(=O)c2ccc(/C=C/C(=O)O)cc2)cc1
79 | 102 to 104 | O=C(O)c1nnc2ccc(NCCCN3CCC(OC(c4ccccc4)c4ccccc4)CC3)nn12
80 | 236 to 238 | CCCCCNc1cccc(C(=O)O)c1C(=O)O
81 | 179 | CC(C)(CNc1c(C(N)=O)cnn2cccc12)N1CCOCC1
82 | 113 | O=C(C=Cc1ccccc1)Oc1ccc(Br)cc1
83 | 92 to 94 | CC(C)(c1ccccc1)c1ccc(N)c([N+](=O)[O-])c1
84 | 153 to 154 | CCOC(=O)c1cn2c3c(c(C(C#N)C(=O)OCC)c(F)cc3c1=O)CCN2C (centres undefined)
85 | 133 to 134 | COc1ccc(-c2cc(=O)n(CCc3ccc(Cl)cc3)nc2-c2ccc(OC)cc2)cc1
86 | 98 to 103 | CCOC(=O)CN(c1ccc(N)cc1)S(=O)(=O)c1cccc2ccccc12
87 | 192 | COc1ccc(-c2cc(N)c(Cl)c(C(=O)O)n2)cc1
88 | 115 to 116 | O=C(NCC1CNc2ccccc2C1)OCc1ccccc1 (centres undefined)
89 | 137 to 139 | CCOC(=O)CN(CC(=O)OCC)Cc1ccc2cc(N)c3ccc(CN(CC(=O)OCC)CC(=O)OCC)nc3c2n1
90 | 159 to 160 | Oc1ccc(-c2nn(C3CCCC3)c3c(C(F)(F)F)cccc23)c(O)c1
91 | 199 | CC(C)(C)c1cccc(S(=O)(=O)n2c(Cc3ccc(C(=O)O)cc3)cc3ccc(C(F)(F)F)cc32)c1
92 | 166 to 167 | O=C(Cc1ccccc1)N[C@@H]1C(=O)N2C[C@@H](O)CS[C@H]12
93 | 168 to 169 | CC1(C)SC(=S)N(Cc2ccco2)C(=O)C1NC(=O)c1ccccc1 (centres undefined)
94 | 78 to 80 | CCCC/C(=C\C=C\C(=O)Oc1ccc([N+](=O)[O-])cc1)c1ccc(OC)cc1

— a melting point compilation (Tetko et al.; mined from patent text by program, amines drawn as free bases though some values may be those of a salt)
